Results published in patent US9181236B2, “2-spiro-substituted iminothiazines and their mono-and dioxides as bace inhibitors, compositions and their use” (Merck Sharp & Dohme Corp., priority 2011, dated 2015).

Assays:
[1] = biological target: purified human autoBACE-2 (Homo sapiens (Human), UniProt Q9Y5Z0); experiment: BACE-2 Assay (BACE-HTRF assay); type: biochemical; details: Ki calculated from IC50 using the Cheng-Prusoff equation; read-out: BACE2 Ki
Protocol: Inhibitor IC50s at purified human autoBACE-2 are determined in a time-resolved endpoint proteolysis assay that measures hydrolysis of the QSY7-[…]-Eu-amide FRET peptide substrate (BACE-HTRF assay). […] DMSO is present at 5% final concentration in the assay. Following laser excitation of sample wells at 320 nm, the fluorescence signal at 620 nm is collected for 400 ms following a 50 μs delay on a RUBYstar HTRF plate reader (BMG Labtechnologies). Raw RFU data is normalized to maximum (1.0 nM BACE/DMSO) and minimum (no enzyme/DMSO) RFU values. […] The Ki values are calculated from the IC50 using the Cheng-Prusoff equation.

[2] = biological target: soluble human BACE1 catalytic domain (Homo sapiens (Human), UniProt P56817); experiment: BACE1 HTRF FRET Assay; type: biochemical; details: Ki calculated from IC50 using the Cheng-Prusoff equation
From the text: A homogeneous time-resolved FRET assay can be used to determine IC50 values for inhibitors of the soluble human BACE1 catalytic domain. This assay monitors the increase of 620 nm fluorescence that resulted from BACE1 cleavage of an APPswedish APP^swe mutant peptide FRET substrate (QSY7-[…]-Europium-amide). This substrate contains an N-terminal QSY7 moiety that serves as a quencher of the C-terminal Europium fluorophore (620 nm Em). In the absence of enzyme activity, 620 nm fluorescence is low in the assay and increased linearly over 3 hours in the presence of uninhibited BACE1 enzyme Inhibition of BACE1 cleavage of the QSY7-APP^swe-Eu substrate by inhibitors is manifested as a suppression of 620 nm fluorescence.
Reactions are initiated by addition of 10 μl of 600 nM QSY7-APP^swe-Eu substrate (200 nM final) to give a final reaction volume of 30 μl in a 384 well Nunc HTRF plate. The reactions are incubated at 30° C. for 1.5 hours. The 620 nm fluorescence is then read on a Rubystar HTRF plate reader (BMG Labtechnologies) using a 50 millisecond delay followed by a 400 millisecond acquisition time window Inhibitor IC50 values are derived from non-linear regression analysis of concentration response curves.

Chain of soluble human BACE1 catalytic domain (P56817 75-416): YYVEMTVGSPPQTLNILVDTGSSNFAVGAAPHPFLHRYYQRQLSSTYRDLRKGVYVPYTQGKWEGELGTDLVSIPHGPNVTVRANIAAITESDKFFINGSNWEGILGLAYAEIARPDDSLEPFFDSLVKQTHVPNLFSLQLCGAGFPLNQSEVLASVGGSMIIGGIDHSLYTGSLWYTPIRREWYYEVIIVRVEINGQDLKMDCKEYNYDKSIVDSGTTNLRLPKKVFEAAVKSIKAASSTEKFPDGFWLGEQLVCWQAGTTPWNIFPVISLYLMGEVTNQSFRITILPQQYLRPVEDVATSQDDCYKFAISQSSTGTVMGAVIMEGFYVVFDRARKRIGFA
Chain of purified human autoBACE-2 (Q9Y5Z0 63-473 limits assumed): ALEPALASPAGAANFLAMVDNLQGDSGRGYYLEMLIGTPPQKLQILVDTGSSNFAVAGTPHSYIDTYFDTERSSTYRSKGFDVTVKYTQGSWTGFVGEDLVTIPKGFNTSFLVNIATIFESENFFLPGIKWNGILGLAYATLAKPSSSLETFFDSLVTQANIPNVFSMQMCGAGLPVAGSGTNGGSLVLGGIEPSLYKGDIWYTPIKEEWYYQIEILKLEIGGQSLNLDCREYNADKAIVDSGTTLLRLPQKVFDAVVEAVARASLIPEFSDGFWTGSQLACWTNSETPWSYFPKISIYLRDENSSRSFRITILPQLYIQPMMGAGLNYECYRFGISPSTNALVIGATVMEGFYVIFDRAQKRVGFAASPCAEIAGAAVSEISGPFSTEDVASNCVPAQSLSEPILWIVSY

Compound | Ki [1] | Ki [2]
C[C@@]1(c2cc(NC(=O)c3cn4ncsc4n3)ccc2F)CS(=O)(=O)C2(CCCC2)C(=N)N1 [Example 19] | < 20 nM | 18.4 nM
C[C@@]1(c2cc(NC(=O)c3cn4ccsc4n3)ccc2F)CS(=O)(=O)C2(CCCC2)C(=N)N1 [Example 20] | < 20 nM | 82 nM
Cc1nc(C(=O)Nc2ccc(F)c([C@]3(C)CS(=O)(=O)C4(CCCC4)C(=N)N3)c2)no1 [Example 21] | 1.3 nM | 13.9 nM
C[C@@]1(c2cc(NC(=O)c3ccn(C(F)F)n3)ccc2F)CS(=O)(=O)C2(CCCC2)C(=N)N1 [Example 22] | 4.3 nM | 12.7 nM
C[C@@]1(c2cc(NC(=O)c3cnsn3)ccc2F)CS(=O)(=O)C2(CCCC2)C(=N)N1 [Example 23] | 3.1 nM | 108 nM
C[C@@]1(c2cc(NC(=O)c3ccc(F)cn3)ccc2F)CS(=O)(=O)C2(CCCCC2)C(=N)N1 [Example 25] | 4.4 nM | 32 nM
COc1ccc(C(=O)Nc2ccc(F)c([C@]3(C)CS(=O)(=O)C4(CCCCC4)C(=N)N3)c2)nc1 [Example 26] | < 20 nM | 37 nM
COc1cnc(C(=O)Nc2ccc(F)c([C@]3(C)CS(=O)(=O)C4(CCCCC4)C(=N)N3)c2)cn1 [Example 27] | < 50 nM | 36 nM
C[C@@]1(c2cc(NC(=O)c3ccc(C#N)cn3)ccc2F)CS(=O)(=O)C2(CCCCC2)C(=N)N1 [Example 28] | < 20 nM | 10.6 nM
C[C@@]1(c2cc(NC(=O)c3ccc(C(F)(F)F)cn3)ccc2F)CS(=O)(=O)C2(CCCCC2)C(=N)N1 [Example 29] | < 50 nM | 23.3 nM
C[C@@]1(c2cc(NC(=O)c3ccc(F)cn3)ccc2F)CS(=O)(=O)C2(CCOCC2)C(=N)N1 [Example 30] | 2.1 nM | 10.9 nM
COc1cnc(C(=O)Nc2ccc(F)c([C@]3(C)CS(=O)(=O)C4(CCOCC4)C(=N)N3)c2)cn1 [Example 32] | < 50 nM | 16.3 nM
C[C@@]1(c2cc(NC(=O)c3ccc(Cl)cn3)ccc2F)CS(=O)(=O)C2(CCOCC2)C(=N)N1 [Example 33] | 1.6 nM | 6.1 nM
C[C@@]1(c2cc(NC(=O)c3ccc(C(F)(F)F)cn3)ccc2F)CS(=O)(=O)C2(CCOCC2)C(=N)N1 [Example 34] | < 50 nM | 19.8 nM
COc1ccc(C(=O)Nc2ccc(F)c([C@]3(C)CS(=O)(=O)C4(CCOCC4)C(=N)N3)c2)nc1 [Example 35] | < 20 nM | 16.4 nM
C[C@@]1(c2sc(-c3cncc(C#N)c3)cc2Cl)CS(=O)(=O)C2(CCCC2)C(=N)N1 [Example 42] | 3.4 nM | 18.3 nM

Compound | Ki [1] | Ki [2]
COc1cccc2cc(-c3cc(Cl)c([C@]4(C)CS(=O)(=O)C5(CCCCC5)C(=N)N4)s3)[nH]c12 [Example 44] | 2 nM | 20.2 nM
C[C@@]1(c2sc(-c3cccc(C#N)c3)cc2Cl)CS(=O)(=O)C2(CCCCC2)C(=N)N1 [Example 45] | < 20 nM | 48 nM
C[C@@]1(c2sc(-c3cncc(C#N)c3)cc2Cl)CS(=O)(=O)C2(CCCCC2)C(=N)N1 [Example 46] | < 50 nM | 114 nM
COc1cccc2cc(-c3cc(Cl)c([C@]4(C)CS(=O)(=O)C5(CCOCC5)C(=N)N4)s3)[nH]c12 [Example 48] | 2 nM | 19.8 nM
C[C@@]1(c2sc(-c3cccc(C#N)c3)cc2Cl)CS(=O)(=O)C2(CCOCC2)C(=N)N1 [Example 49] | < 50 nM | 113 nM
C[C@@]1(c2sc(-c3cncc(C#N)c3)cc2Cl)CS(=O)(=O)C2(CCOCC2)C(=N)N1 [Example 50] | < 50 nM | 130 nM
C[C@@]1(c2sc(-c3cccc(C(F)(F)F)c3)cc2Cl)CS(=O)(=O)C2(CCOCC2)C(=N)N1 [Example 52] | < 50 nM | 147 nM
C[C@@]1(c2sc(-c3cncc(C(F)(F)F)c3)cc2Cl)CS(=O)(=O)C2(CCOCC2)C(=N)N1 [Example 54] | < 50 nM | 157 nM
COc1cc(C#N)cc(-c2cc(Cl)c([C@]3(C)CS(=O)(=O)C4(CCOCC4)C(=N)N3)s2)c1 [Example 57] | < 20 nM | 161 nM
COc1cccc2cc(-c3cc(Cl)c([C@]4(C)CS(=O)(=O)C5(CCC5)C(=N)N4)s3)[nH]c12 [Example 58] | 1 nM | 7.7 nM
C[C@@]1(c2sc(-c3cncc(C#N)c3)cc2Cl)CS(=O)(=O)C2(CCC2)C(=N)N1 [Example 59] | < 20 nM | 56 nM
C[C@@]1(c2sc(-c3cccc(C#N)c3)cc2Cl)CS(=O)(=O)C2(CCC2)C(=N)N1 [Example 61] | < 20 nM | 35.6 nM
COc1cnc(C(=O)Nc2ccc(F)c([C@]3(C)CS(=O)(=O)[C@]4(CCOC4)C(=N)N3)c2)cn1 [Example 62] | < 20 nM | 25.4 nM
C[C@@]1(c2cc(NC(=O)c3ccc(Cl)cn3)ccc2F)CS(=O)(=O)[C@]2(CCOC2)C(=N)N1 [Example 62c] | 1.8 nM | 8.1 nM
COc1cnc(C(=O)Nc2ccc(F)c([C@]3(C)CS(=O)(=O)[C@@]4(CCOC4)C(=N)N3)c2)cn1 [Example 63] | < 50 nM | 41 nM
C[C@@]1(c2cc(NC(=O)c3ccc(Cl)cn3)ccc2F)CS(=O)(=O)[C@@]2(CCOC2)C(=N)N1 [Example 63c] | 1.3 nM | 5.9 nM

Now from value to compound:

Ki [1] | Ki [2] | Compound
< 50 nM | 35.9 nM | C[C@@]1(c2sc(-c3cccc(-c4nnco4)c3)cc2Cl)CS(=O)(=O)C2(CCCCC2)C(=N)N1 [Example 47a]
< 50 nM | 18.6 nM | C[C@@]1(c2sc(-c3cccc(-c4nnco4)c3)cc2Cl)CS(=O)(=O)C2(CCC2)C(=N)N1 [Example 61a]
< 20 nM | 30.3 nM | COc1ccc(C(=O)Nc2ccc(F)c([C@]3(C)CS(=O)(=O)[C@]4(CCOC4)C(=N)N3)c2)nc1 [Example 62a]
4.3 nM | 24 nM | C[C@@]1(c2cc(NC(=O)c3ccc(F)cn3)ccc2F)CS(=O)(=O)[C@]2(CCOC2)C(=N)N1 [Example 62b]
< 50 nM | 17 nM | C[C@@]1(c2cc(NC(=O)c3ccc(C(F)(F)F)cn3)ccc2F)CS(=O)(=O)[C@]2(CCOC2)C(=N)N1 [Example 62d]
< 20 nM | 6.1 nM | C[C@@]1(c2cc(NC(=O)c3ccc(C#N)cn3)ccc2F)CS(=O)(=O)[C@]2(CCOC2)C(=N)N1 [Example 62e]
< 20 nM | 67.1 nM | C[C@@]1(c2sc(-c3cncc(C#N)c3)cc2Cl)CS(=O)(=O)[C@]2(CCOC2)C(=N)N1 [Example 62f]
0.9 nM | 6.3 nM | COc1cccc2cc(-c3cc(Cl)c([C@]4(C)CS(=O)(=O)[C@]5(CCOC5)C(=N)N4)s3)[nH]c12 [Example 62g]
2.8 nM | 56.7 nM | C[C@@]1(c2sc(-c3cncc(-c4ncco4)c3)cc2Cl)CS(=O)(=O)[C@]2(CCOC2)C(=N)N1 [Example 62h]
< 50 nM | 296 nM | C[C@@]1(c2sc(-c3ccnc(-c4ccoc4)c3)cc2Cl)CS(=O)(=O)[C@]2(CCOC2)C(=N)N1 [Example 62j]
< 20 nM | 305 nM | C[C@@]1(c2sc(-c3ccnc(-c4cccs4)c3)cc2Cl)CS(=O)(=O)[C@]2(CCOC2)C(=N)N1 [Example 62k]
2.2 nM | 45.3 nM | C[C@@]1(c2sc(-c3ccnc(-c4ccco4)c3)cc2Cl)CS(=O)(=O)[C@]2(CCOC2)C(=N)N1 [Example 62l]
< 20 nM | 313 nM | C[C@@]1(c2sc(-c3ccnc(-c4ccccc4)c3)cc2Cl)CS(=O)(=O)[C@]2(CCOC2)C(=N)N1 [Example 62n]
< 20 nM | 24.2 nM | COc1ccc(C(=O)Nc2ccc(F)c([C@]3(C)CS(=O)(=O)[C@@]4(CCOC4)C(=N)N3)c2)nc1 [Example 63a]
2.7 nM | 18.7 nM | C[C@@]1(c2cc(NC(=O)c3ccc(F)cn3)ccc2F)CS(=O)(=O)[C@@]2(CCOC2)C(=N)N1 [Example 63b]
< 20 nM | 5.2 nM | C[C@@]1(c2cc(NC(=O)c3ccc(C#N)cn3)ccc2F)CS(=O)(=O)[C@@]2(CCOC2)C(=N)N1 [Example 63d]
< 50 nM | 192 nM | C[C@@]1(c2sc(-c3cncc(C#N)c3)cc2Cl)CS(=O)(=O)[C@@]2(CCOC2)C(=N)N1 [Example 63e]
1.5 nM | 14.2 nM | COc1cccc2cc(-c3cc(Cl)c([C@]4(C)CS(=O)(=O)[C@@]5(CCOC5)C(=N)N4)s3)[nH]c12 [Example 63f]
< 50 nM | 20.2 nM | C[C@@]1(c2sc(-c3cccc(-c4nnco4)c3)cc2Cl)CS(=O)(=O)[C@@]2(CCOC2)C(=N)N1 [Example 63g]
< 20 nM | 107 nM | C[C@@]1(c2sc(-c3cncc(-c4ncco4)c3)cc2Cl)CS(=O)(=O)[C@@]2(CCOC2)C(=N)N1 [Example 63h]
